In US20210330611A1, “THERAPY FOR NEUROLOGICAL DISEASES/DISORDERS” (priority 2020, published 2021):
pIC50: −log10 of the molar value. Structures can show the parent of a compound that is named as a salt. Where two headings read alike, the source gives them in different places.

Experiments:
Format in all cases: cell-based, rat
[1] = tested on: fibrin-induced microglia activation; experiment: Image-based assay of fibrin-induced microglia activation (HTS and dose response); settings: for inhibition at 10 µM: read-out: Fibrin % inhibition
[2] = tested on: LPS-induced microglia activation; experiment: Image-based assay of LPS-induced microglia activation (HTS and dose response); settings: for inhibition at 10 µM: read-out: LPS % inhibition
[3] = tested on: fibrin- and LPS-induced microglia activation; experiment: cells
[4] = Rattus norvegicus, Microglia, primary microglia HTS, fibrin stimulation, compounds at 10 μM
[5] = Rattus norvegicus, Microglia, primary microglia HTS, fibrin stimulation, increased cell size (>800 μm^2) as marker of activation
[6] = Rattus norvegicus, Microglia, 48 h, primary microglia HTS, LPS stimulation, increased cell size (>800 μm^2) as marker of activation
[7] = Rattus norvegicus, Microglia, primary microglia HTS, LPS stimulation, compounds at 10 μM
[8] = quadrant by fibrin and LPS inhibition in HTS of 1907 compounds
[9] = quadrant by fibrin and LPS inhibition, HTS at 10 μM
[10] = Rattus norvegicus, Microglia, 48 h
[11] = classification by fibrin and LPS inhibition, HTS at 10 μM

`C[C@]12C=CC(=O)C=C1CC[C@@H]1[C@@H]2[C@@H](O)C[C@@]2(C)[C@H]1CC[C@]2(O)C(=O)CO` [Prednisolone, reference compound] was tested, and the pIC50 ([1]; Rattus norvegicus, Microglia, Table 7, read-out: fib_IC50) was 8.70, the inhibition at 10 µM [1, 4] was 97% and the inhibition at 10 µM [1, 5] was 114%. The inhibition at 10 µM [2, 6] was 100%, the pIC50 ([2]; Rattus norvegicus, Microglia, Table 7, read-out: LPS_IC50) was 8.70 and the inhibition at 10 µM [2, 7] was 87%. For the same molecule, the “Quadrant (FIG. 5b)” value ([3]; Table 2, screen at 10 μM) was “Q2”, the Activity ([3]; Table 7, fib = fibrin, LPS, tox = toxicity) was “fib/LPS” and the “Quadrant (FIG. 5b)” value [3, 8] was “Q2”. For the same molecule, the “Quadrant (FIG. 5b)” value [3, 9] was “Q2”.

For `CN(N=O)C(=O)N[C@@H](C=O)[C@@H](O)[C@H](O)[C@H](O)CO` [Streptozocin], the inhibition at 10 µM ([1]; Rattus norvegicus, Microglia) was -30%, the inhibition at 10 µM ([2]; Rattus norvegicus, Microglia) was 19% and the “Quadrant (FIG. 5b)” value [3] was “Q4”.

With `CC(=O)OCC(=O)[C@@]12OC(C)(C)O[C@@H]1C[C@H]1[C@@H]3C[C@H](F)C4=CC(=O)C=C[C@]4(C)[C@@]3(F)[C@@H](O)C[C@@]12C` [Fluocinonide, reference compound] the inhibition at 10 µM ([1]; Rattus norvegicus, Microglia) was 112%, the IC50 ([1]; Rattus norvegicus, Microglia, read-out: fib_IC50 (uM)) was 0.002 µM and the inhibition at 10 µM [2, 10] was 106%. For the same molecule, the IC50 ([2]; Rattus norvegicus, Microglia, read-out: LPS_IC50 (uM)) was 0.002 µM, the Activity [3] was “fib/LPS” and the “Quadrant (FIG. 5b)” value [3] was “Q2”.

`Nc1cc(N2CCCCC2)nc(N)[n+]1[O-]` [Minoxidil] was tested, and the inhibition at 10 µM [1, 5] was -5%, the inhibition at 10 µM [2, 6] was 9% and the “Quadrant (FIG. 5b)” value [3, 8] was “Q4”.

In the case of `CCN1C(=O)NC(c2ccccc2)C1=O` (stereo not shown) [Ethotoin], the inhibition at 10 µM [1, 4] was -36%, the inhibition at 10 µM [2, 7] was 12% and the “Quadrant (FIG. 5b)” value [3, 11] was “Q4”.

In the case of `CC1=C(/C=C/C(C)=C/C=C/C(C)=C/C=C/C=C(C)/C=C/C=C(C)/C=C/C2=C(C)CCCC2(C)C)C(C)(C)CCC1` [Beta-carotene], the inhibition at 10 µM ([1]; Rattus norvegicus, Microglia) was -15%, the inhibition at 10 µM ([2]; Rattus norvegicus, Microglia) was -3% and the “Quadrant (FIG. 5b)” value [3] was “Q4”.

`OC[C@H]1O[C@H](O[C@H]2[C@H](O)[C@@H](O)C(O)O[C@@H]2CO)[C@H](O)[C@@H](O)[C@@H]1O` (stereo partly drawn) [D-(+)-maltose] was tested, and the Fibrin % inhibition ([1]; primary microglia HTS, fibrin stimulation, compounds at 10 μM) was −7%, the LPS % inhibition ([2]; primary microglia HTS, LPS stimulation, compounds at 10 μM) was 14% and the “Quadrant (FIG. 5b)” value [3, 11] was “Q4”.

For `Cc1cnc(C(=O)NCCc2ccc(S(=O)(=O)NC(=O)NC3CCCCC3)cc2)cn1` [Glipizide], the inhibition at 10 µM ([1]; Rattus norvegicus, Microglia) was 12%, the inhibition at 10 µM [2, 10] was 18% and the “Quadrant (FIG. 5b)” value [3] was “Q4”.

In the case of `COc1cccc2c1C(=O)c1c(O)c3c(c(O)c1C2=O)C[C@@](O)(C(=O)CO)C[C@@H]3O[C@H]1C[C@H](N)[C@H](O)[C@H](C)O1` [Doxorubicin], the inhibition at 10 µM [1, 5] was 106%, the inhibition at 10 µM [2, 6] was 108% and the “Quadrant (FIG. 5b)” value [3, 8] was “Q2”.

`C[C@]12CC[C@H]3[C@@H](CCC4=CC(=O)CC[C@@]43C)[C@@H]1CC[C@@H]2O` [Testosterone] was tested, and the inhibition at 10 µM ([1]; Rattus norvegicus, Microglia) was -1%, the inhibition at 10 µM ([2]; Rattus norvegicus, Microglia) was 5% and the “Quadrant (FIG. 5b)” value [3] was “Q4”.

With `O=C(O)c1cccnc1` [Niacin] the inhibition at 10 µM ([1]; Rattus norvegicus, Microglia) was 8%, the inhibition at 10 µM [2, 10] was 13% and the “Quadrant (FIG. 5b)” value [3] was “Q4”.

In the case of `CN1CCc2cccc3c2[C@H]1Cc1ccc(O)c(O)c1-3.Cl` [R(−)-Apomorphine hydrochloride, reference compound], the Fibrin % inhibition [1] was 63%, the pIC50 ([1]; Table 1, dose response 0.001-20 μM, triplicates, primary rat microglia, 48 h, read-out: Fibrin IC50) was < 4.70 and the pIC50 ([1]; read-out: Fibrin IC50) was < 4.70. The IC50 ([1]; read-out: Fibrin IC50 (uM) (Suppl. Table 7)) was > 20 µM, the LPS % inhibition [2] was 18% and the pIC50 ([2]; Table 1, dose response 0.001-20 μM, triplicates, primary rat microglia, 48 h, read-out: LPS IC50) was 4.85. For the same molecule, the pIC50 ([2]; read-out: LPS IC50) was 4.85, the IC50 ([2]; read-out: LPS IC50 (uM) (Suppl. Table 7)) was 14 µM and the “Cherry-picked Hit (Suppl. Table 7)” value [3] was “HIT (key: HIT: Hits were defined as molecules that exhibited greater than 50% inhibition of either fibrin or LPS activation)”. For the same molecule, the Hit [3] was “HIT (key: HIT: Hits were defined as molecules that exhibited greater than 50% inhibition of either fibrin or LPS activation)”, the “Quadrant (FIG. 5b)” value [3] was “Q3” and the “Quadrant (FIG. 5b)” value ([3]; Table 1, screen at 10 μM) was “Q3”.

With `CN1[C@@H]2C[C@@H](OC(=O)[C@H](CO)c3ccccc3)C[C@H]1[C@@H]1O[C@@H]12` [Scopolamine] the Fibrin % inhibition [1] was −26%, the LPS % inhibition [2] was −6% and the “Quadrant (FIG. 5b)” value [3] was “Q4”.

In the case of `CS(=O)(=O)Nc1ccc([N+](=O)[O-])cc1Oc1ccccc1` [Nimesulide], the inhibition at 10 µM ([1]; Rattus norvegicus, Microglia) was -19%, the inhibition at 10 µM [2, 10] was 13% and the “Quadrant (FIG. 5b)” value [3] was “Q4”.

`O=C(O)COC(=O)Cc1ccccc1Nc1c(Cl)cccc1Cl` [Aceclofenac] was tested, and the inhibition at 10 µM [1, 4] was -2%, the inhibition at 10 µM [2, 7] was 8% and the “Quadrant (FIG. 5b)” value [3, 9] was “Q4”.

`Nc1nc2nc[nH]c2c(=S)[nH]1` [Tioguanine] was tested, and the inhibition at 10 µM ([1]; Rattus norvegicus, Microglia) was 12%, the inhibition at 10 µM ([2]; Rattus norvegicus, Microglia) was 18% and the “Quadrant (FIG. 5b)” value [3] was “Q4”.

With `CCC[C@@H]1C[C@@H](C(=O)N[C@@H]([C@H]2O[C@H](SC)[C@H](O)[C@@H](O)[C@H]2O)[C@H](C)Cl)N(C)C1` [Clindamycin Hydrochloride] the inhibition at 10 µM ([1]; Rattus norvegicus, Microglia) was -44%, the inhibition at 10 µM ([2]; Rattus norvegicus, Microglia) was 7% and the “Quadrant (FIG. 5b)” value [3] was “Q4”.
